Laboratory results taken from BindingDB's records for doi:10.1021/jm7011613 (Abbott Laboratories, 2008).

biological target: Cannabinoid receptor 2 (Homo sapiens, UniProt P34972); assay: Radioligand Binding Assay
Experimental: IC50 values for test compounds were determined from nonlinear regression analysis of data collected from ligand binding experiments. The inhibition constant (Ki) was calculated from IC50 value by the Cheng and Prusoff equation.

Cannabinoid receptor 2, sequence (P34972 whole entry): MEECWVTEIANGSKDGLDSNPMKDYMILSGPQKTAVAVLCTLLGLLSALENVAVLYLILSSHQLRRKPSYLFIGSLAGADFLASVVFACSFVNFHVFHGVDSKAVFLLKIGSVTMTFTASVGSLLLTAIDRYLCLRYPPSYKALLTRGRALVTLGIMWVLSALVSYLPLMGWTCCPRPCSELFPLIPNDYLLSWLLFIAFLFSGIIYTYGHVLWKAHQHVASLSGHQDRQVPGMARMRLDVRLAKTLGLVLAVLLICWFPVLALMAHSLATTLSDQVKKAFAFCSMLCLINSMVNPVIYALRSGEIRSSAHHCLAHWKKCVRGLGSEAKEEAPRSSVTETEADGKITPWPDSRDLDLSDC

Compound | EC50
CC1(C)C(C(=O)c2cn(CC3CCOCC3)c3cccc(O)c23)C1(C)C [1-(oxan-4-ylmethyl)-3-[(2,2,3,3-tetramethylcyclopropyl)carbonyl]-1H-indol-4-ol] | 73 nM
CC1(C)C(C(=O)c2cn(CC3CCOCC3)c3ccc(N)cc23)C1(C)C [1-(oxan-4-ylmethyl)-3-[(2,2,3,3-tetramethylcyclopropyl)carbonyl]-1H-indol-5-amine] | 15.5 nM
CC1(C)C(C(=O)c2cn(CC3CCOCC3)c3ccc(O)cc23)C1(C)C [1-(oxan-4-ylmethyl)-3-[(2,2,3,3-tetramethylcyclopropyl)carbonyl]-1H-indol-5-ol] | 11 nM
CC1(C)C(C(=O)c2cn(CC3CCOCC3)c3cc(O)ccc23)C1(C)C [1-(oxan-4-ylmethyl)-3-[(2,2,3,3-tetramethylcyclopropyl)carbonyl]-1H-indol-6-ol] | 18.5 nM
CC1(C)C(C(=O)c2cn(CC3CCOCC3)c3cc(O)c(O)cc23)C1(C)C [1-(oxan-4-ylmethyl)-3-[(2,2,3,3-tetramethylcyclopropyl)carbonyl]-1H-indole-5,6-diol] | 28 nM
CC1(C)C(C(=O)c2cn(CC3CCOCC3)c3ccc(C#N)cc23)C1(C)C [1-(oxan-4-ylmethyl)-3-[(2,2,3,3-tetramethylcyclopropyl)carbonyl]-1H-indole-5-carbonitrile] | 263 nM
CC1(C)C(C(=O)c2cn(CC3CCOCC3)c3cc(C#N)ccc23)C1(C)C [1-(oxan-4-ylmethyl)-3-[(2,2,3,3-tetramethylcyclopropyl)carbonyl]-1H-indole-6-carbonitrile] | 53 nM
CC1(C)C(C(=O)c2cn(CC3CCOCC3)c3ccccc23)C1(C)C [1-(oxan-4-ylmethyl)-3-[(2,2,3,3-tetramethylcyclopropyl)carbonyl]-1H-indole] | 9.5 nM
CC1(C)C(C(=O)c2cn(CCN3CCOCC3)c3cccc(N)c23)C1(C)C [1-[2-(morpholin-4-yl)ethyl]-3-[(2,2,3,3-tetramethylcyclopropyl)carbonyl]-1H-indol-4-amine] | 215 nM
CC1(C)C(C(=O)c2cn(CC3CCOCC3)c3c(F)c(F)c(F)c(F)c23)C1(C)C [4,5,6,7-tetrafluoro-1-(oxan-4-ylmethyl)-3-[(2,2,3,3-tetramethylcyclopropyl)carbonyl]-1H-indole] | 40 nM
Cc1c(C(=O)C2C(C)(C)C2(C)C)c2ccccc2n1CCN1CCOCC1 [4-(2-{2-methyl-3-[(2,2,3,3-tetramethylcyclopropyl)carbonyl]-1H-indol-1-yl}ethyl)morpholine] | 362 nM
CC1(C)C(C(=O)c2cn(CCN3CCOCC3)c3ccccc23)C1(C)C [4-(2-{3-[(2,2,3,3-tetramethylcyclopropyl)carbonyl]-1H-indol-1-yl}ethyl)morpholine] | 17.5 nM
CC1(C)C(C(=O)c2cn(CC3CCOCC3)c3cccc(OCc4ccccc4)c23)C1(C)C [4-(benzyloxy)-1-(oxan-4-ylmethyl)-3-[(2,2,3,3-tetramethylcyclopropyl)carbonyl]-1H-indole] | 502 nM
COc1cccc2c1c(C(=O)C1C(C)(C)C1(C)C)cn2CC1CCOCC1 [4-methoxy-1-(oxan-4-ylmethyl)-3-[(2,2,3,3-tetramethylcyclopropyl)carbonyl]-1H-indole] | 91 nM
COCc1ccc2c(c1)c(C(=O)C1C(C)(C)C1(C)C)cn2CC1CCOCC1 [5-(methoxymethyl)-1-(oxan-4-ylmethyl)-3-[(2,2,3,3-tetramethylcyclopropyl)carbonyl]-1H-indole] | 74.5 nM
CC1(C)C(C(=O)c2cn(CC3CCOCC3)c3cc4c(cc23)OCO4)C1(C)C [5-(oxan-4-ylmethyl)-7-[(2,2,3,3-tetramethylcyclopropyl)carbonyl]-2H,5H-[1,3]dioxolo[4,5-f]indole] | 29.5 nM
CC1(C)C(C(=O)c2cn(CC3CCOCC3)c3ccc(Br)cc23)C1(C)C [5-bromo-1-(oxan-4-ylmethyl)-3-[(2,2,3,3-tetramethylcyclopropyl)carbonyl]-1H-indole] | 390 nM
CC1(C)C(C(=O)c2cn(CC3CCOCC3)c3ccc(Cl)cc23)C1(C)C [5-chloro-1-(oxan-4-ylmethyl)-3-[(2,2,3,3-tetramethylcyclopropyl)carbonyl]-1H-indole] | 132 nM
CC1(C)C(C(=O)c2cn(CC3CCOCC3)c3ccc(F)cc23)C1(C)C [5-fluoro-1-(oxan-4-ylmethyl)-3-[(2,2,3,3-tetramethylcyclopropyl)carbonyl]-1H-indole] | 36.5 nM
COc1ccc2c(c1)c(C(=O)C1C(C)(C)C1(C)C)cn2CC1CCOCC1 [5-methoxy-1-(oxan-4-ylmethyl)-3-[(2,2,3,3-tetramethylcyclopropyl)carbonyl]-1H-indole] | 101 nM
CC1(C)C(C(=O)c2cn(CC3CCOCC3)c3cc(OCc4ccccc4)ccc23)C1(C)C [6-(benzyloxy)-1-(oxan-4-ylmethyl)-3-[(2,2,3,3-tetramethylcyclopropyl)carbonyl]-1H-indole] | 167 nM
CC1(C)C(C(=O)c2cn(CC3CCOCC3)c3cc(Cl)ccc23)C1(C)C [6-chloro-1-(oxan-4-ylmethyl)-3-[(2,2,3,3-tetramethylcyclopropyl)carbonyl]-1H-indole] | 21 nM
CC1(C)C(C(=O)c2cn(CC3CCOCC3)c3ccc(CO)cc23)C1(C)C [[1-(oxan-4-ylmethyl)-3-[(2,2,3,3-tetramethylcyclopropyl)carbonyl]-1H-indol-5-yl]methanol] | 97.5 nM
